Results reported in US11358949B2, “Carbamate and urea compounds as multikinase inhibitors” (ANGEX PHARMACEUTICAL, INC., priority 2017, dated 2022).

Key:
AXL = target: T1, AXL (Homo sapiens, UniProt P30530); assay: HotSpot Kinase Assay, AXL
T1 sequence (P30530 26-894): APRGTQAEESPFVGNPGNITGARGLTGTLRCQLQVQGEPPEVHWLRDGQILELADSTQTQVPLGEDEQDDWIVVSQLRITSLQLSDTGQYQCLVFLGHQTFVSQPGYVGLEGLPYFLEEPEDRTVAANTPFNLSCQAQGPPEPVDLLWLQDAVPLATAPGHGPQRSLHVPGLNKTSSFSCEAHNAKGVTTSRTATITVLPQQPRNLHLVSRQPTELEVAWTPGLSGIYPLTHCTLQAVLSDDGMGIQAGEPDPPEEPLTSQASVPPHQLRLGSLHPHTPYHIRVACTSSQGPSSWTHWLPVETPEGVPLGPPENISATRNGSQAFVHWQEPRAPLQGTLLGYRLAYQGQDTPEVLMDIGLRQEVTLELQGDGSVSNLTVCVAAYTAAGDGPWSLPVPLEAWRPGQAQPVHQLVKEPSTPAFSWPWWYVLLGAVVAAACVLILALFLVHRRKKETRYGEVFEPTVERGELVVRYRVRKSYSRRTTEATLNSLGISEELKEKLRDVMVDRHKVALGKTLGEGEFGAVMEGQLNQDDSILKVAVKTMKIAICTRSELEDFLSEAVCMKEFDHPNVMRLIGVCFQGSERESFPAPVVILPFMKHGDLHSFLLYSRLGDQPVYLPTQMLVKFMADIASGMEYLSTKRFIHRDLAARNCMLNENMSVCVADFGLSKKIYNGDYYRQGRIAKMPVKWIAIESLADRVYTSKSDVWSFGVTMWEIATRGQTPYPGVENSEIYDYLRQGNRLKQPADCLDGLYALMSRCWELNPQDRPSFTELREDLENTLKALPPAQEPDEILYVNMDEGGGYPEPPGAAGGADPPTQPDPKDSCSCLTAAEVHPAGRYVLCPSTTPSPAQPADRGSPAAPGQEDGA

FMS = FMS (Homo sapiens, UniProt P07333); assay: HotSpot Kinase Assay, FMS
Procedure: (§1) Specifically, for each reaction, kinase and substrate were mixed in a pH 7.5 buffer containing 20 mM HEPES, 10 mM MgCl2, 1 mM EGTA [Ethylene glycol-bis(2-aminoethylether)-N,N,N′,N′-tetraacetic acid], 0.02% Brij35, 0.02 mg/mL BSA (Bovine Serum Albumin), 0.1 mM Na3VO4, 2 mM DTT, and 1% DMSO. Compounds were then added to each reaction mixture. After a 20-min incubation, ATP (Sigma-Aldrich) and [γ-^33P] ATP (PerkinElmer) were added at a final total concentration of 100 μM. Reactions were carried out at room temperature for 2 hours and spotted onto P81 ion exchange cellulose chromatography paper (Whatman). […] The percent remaining kinase activity relative to a vehicle-containing (DMSO) kinase reaction was calculated for each kinase/inhibitor pair. […] IC50 values were calculated using Prism 5 (GraphPad).

DDR1 = DDR1 (Homo sapiens, UniProt Q08345); assay: HotSpot Kinase Assay, DDR1
Procedure: as §1

c-Kit = c-Kit (Homo sapiens, UniProt P10721); assay: HotSpot Kinase Assay, c-Kit
Procedure: as §1

c-MER = target: T2, c-MER (Homo sapiens, UniProt Q12866); assay: HotSpot Kinase Assay, c-MER
T2 sequence (Q12866 21-999): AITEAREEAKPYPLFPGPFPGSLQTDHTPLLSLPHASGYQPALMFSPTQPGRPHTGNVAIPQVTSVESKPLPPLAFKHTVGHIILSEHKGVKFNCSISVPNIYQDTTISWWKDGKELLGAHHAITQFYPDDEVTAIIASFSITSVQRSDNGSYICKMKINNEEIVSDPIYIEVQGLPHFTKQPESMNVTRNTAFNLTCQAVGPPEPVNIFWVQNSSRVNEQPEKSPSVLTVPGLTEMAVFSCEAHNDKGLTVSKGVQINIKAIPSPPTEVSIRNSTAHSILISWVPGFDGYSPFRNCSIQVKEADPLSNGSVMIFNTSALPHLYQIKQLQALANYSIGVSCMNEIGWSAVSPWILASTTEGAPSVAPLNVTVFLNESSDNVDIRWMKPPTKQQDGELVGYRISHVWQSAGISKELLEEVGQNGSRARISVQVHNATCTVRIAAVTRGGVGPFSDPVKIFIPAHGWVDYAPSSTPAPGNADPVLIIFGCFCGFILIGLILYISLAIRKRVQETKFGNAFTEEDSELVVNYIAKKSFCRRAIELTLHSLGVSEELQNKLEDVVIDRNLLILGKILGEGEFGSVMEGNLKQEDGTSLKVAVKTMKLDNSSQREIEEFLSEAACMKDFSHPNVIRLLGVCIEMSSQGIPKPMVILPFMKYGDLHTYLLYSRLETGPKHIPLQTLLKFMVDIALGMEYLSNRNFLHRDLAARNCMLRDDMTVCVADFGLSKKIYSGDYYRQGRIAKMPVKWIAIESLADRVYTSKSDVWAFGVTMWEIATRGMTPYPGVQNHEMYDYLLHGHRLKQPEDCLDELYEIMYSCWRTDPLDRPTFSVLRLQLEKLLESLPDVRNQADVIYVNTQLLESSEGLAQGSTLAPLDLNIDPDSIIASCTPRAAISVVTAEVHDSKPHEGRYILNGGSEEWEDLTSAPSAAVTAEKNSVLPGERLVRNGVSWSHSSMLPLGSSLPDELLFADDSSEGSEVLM
Procedure: as §1

c-MET = c-MET (Homo sapiens, UniProt P08581); assay: HotSpot Kinase Assay, c-MET
EPHA2 = EPHA2 (Homo sapiens, UniProt P29317); assay: HotSpot Kinase Assay, EPHA2
LOK/STK10 = LOK/STK10 (Homo sapiens, UniProt O94804); assay: HotSpot Kinase Assay, LOK/STK10
Procedure: as §1

TYRO3/SKY = target: T3, TYRO3/SKY (Homo sapiens, UniProt Q06418); assay: HotSpot Kinase Assay, TYRO3/SKY
T3 sequence (Q06418 41-890): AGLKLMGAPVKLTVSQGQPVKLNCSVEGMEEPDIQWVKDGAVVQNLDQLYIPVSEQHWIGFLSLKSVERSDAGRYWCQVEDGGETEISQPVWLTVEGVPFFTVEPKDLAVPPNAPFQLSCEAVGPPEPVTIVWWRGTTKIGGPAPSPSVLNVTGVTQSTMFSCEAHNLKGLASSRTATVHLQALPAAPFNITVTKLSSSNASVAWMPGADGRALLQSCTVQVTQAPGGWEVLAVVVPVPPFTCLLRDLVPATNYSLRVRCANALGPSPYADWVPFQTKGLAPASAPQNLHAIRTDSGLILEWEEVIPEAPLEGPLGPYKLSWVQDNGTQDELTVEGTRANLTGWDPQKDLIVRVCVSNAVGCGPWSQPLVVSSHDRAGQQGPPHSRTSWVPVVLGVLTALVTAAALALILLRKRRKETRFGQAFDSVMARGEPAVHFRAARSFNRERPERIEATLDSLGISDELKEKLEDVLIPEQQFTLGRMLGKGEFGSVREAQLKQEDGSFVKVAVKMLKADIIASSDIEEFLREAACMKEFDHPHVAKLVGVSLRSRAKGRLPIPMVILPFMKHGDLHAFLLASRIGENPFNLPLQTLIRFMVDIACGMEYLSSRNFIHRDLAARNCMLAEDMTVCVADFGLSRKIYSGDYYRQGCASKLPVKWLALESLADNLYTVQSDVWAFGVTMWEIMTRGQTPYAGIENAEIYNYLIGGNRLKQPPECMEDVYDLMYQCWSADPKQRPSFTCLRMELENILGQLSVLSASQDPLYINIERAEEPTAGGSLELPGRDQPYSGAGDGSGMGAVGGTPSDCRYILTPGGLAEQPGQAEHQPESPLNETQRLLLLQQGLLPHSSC

KDR/VEGFR2 = KDR/VEGFR2 (Homo sapiens, UniProt P35968); assay: HotSpot Kinase Assay, KDR/VEGFR2
KDR/VEGFR2, sequence (P35968 20-1356): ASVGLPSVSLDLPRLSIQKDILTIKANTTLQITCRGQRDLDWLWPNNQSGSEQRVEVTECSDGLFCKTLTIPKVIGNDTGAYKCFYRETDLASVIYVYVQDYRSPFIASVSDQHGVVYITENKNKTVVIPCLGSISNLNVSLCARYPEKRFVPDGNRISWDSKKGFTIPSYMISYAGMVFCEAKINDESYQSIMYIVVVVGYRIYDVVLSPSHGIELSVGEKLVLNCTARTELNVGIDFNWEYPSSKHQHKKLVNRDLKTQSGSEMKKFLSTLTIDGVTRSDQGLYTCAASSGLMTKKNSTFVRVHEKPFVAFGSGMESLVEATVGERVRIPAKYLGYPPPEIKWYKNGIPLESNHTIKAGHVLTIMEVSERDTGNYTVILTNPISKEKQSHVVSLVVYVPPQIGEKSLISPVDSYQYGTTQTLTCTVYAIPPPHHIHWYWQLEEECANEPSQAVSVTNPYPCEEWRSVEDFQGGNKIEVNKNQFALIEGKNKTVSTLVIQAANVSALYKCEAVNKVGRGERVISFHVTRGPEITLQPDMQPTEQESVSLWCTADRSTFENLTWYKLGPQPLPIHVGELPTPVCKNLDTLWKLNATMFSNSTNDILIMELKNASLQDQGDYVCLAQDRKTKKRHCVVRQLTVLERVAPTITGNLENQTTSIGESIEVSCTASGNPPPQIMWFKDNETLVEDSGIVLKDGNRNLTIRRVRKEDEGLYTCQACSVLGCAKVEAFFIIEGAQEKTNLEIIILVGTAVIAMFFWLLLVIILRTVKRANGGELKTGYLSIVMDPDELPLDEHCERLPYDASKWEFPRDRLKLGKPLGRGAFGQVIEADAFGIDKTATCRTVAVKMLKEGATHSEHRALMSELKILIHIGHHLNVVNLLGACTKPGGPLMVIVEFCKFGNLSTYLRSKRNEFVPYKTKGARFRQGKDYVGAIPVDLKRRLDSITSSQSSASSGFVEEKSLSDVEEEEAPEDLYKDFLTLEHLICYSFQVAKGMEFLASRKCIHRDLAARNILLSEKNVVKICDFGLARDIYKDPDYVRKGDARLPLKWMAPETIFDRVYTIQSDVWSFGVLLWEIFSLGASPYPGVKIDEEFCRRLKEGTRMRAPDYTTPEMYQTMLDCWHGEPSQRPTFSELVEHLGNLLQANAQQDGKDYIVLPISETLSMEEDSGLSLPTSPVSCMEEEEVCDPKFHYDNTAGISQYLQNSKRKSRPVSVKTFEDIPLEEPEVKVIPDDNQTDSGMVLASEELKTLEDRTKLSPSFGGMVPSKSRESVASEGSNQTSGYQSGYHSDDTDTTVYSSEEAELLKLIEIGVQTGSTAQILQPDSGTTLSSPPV
Procedure: as §1

EPHA2, sequence (P29317 24-976): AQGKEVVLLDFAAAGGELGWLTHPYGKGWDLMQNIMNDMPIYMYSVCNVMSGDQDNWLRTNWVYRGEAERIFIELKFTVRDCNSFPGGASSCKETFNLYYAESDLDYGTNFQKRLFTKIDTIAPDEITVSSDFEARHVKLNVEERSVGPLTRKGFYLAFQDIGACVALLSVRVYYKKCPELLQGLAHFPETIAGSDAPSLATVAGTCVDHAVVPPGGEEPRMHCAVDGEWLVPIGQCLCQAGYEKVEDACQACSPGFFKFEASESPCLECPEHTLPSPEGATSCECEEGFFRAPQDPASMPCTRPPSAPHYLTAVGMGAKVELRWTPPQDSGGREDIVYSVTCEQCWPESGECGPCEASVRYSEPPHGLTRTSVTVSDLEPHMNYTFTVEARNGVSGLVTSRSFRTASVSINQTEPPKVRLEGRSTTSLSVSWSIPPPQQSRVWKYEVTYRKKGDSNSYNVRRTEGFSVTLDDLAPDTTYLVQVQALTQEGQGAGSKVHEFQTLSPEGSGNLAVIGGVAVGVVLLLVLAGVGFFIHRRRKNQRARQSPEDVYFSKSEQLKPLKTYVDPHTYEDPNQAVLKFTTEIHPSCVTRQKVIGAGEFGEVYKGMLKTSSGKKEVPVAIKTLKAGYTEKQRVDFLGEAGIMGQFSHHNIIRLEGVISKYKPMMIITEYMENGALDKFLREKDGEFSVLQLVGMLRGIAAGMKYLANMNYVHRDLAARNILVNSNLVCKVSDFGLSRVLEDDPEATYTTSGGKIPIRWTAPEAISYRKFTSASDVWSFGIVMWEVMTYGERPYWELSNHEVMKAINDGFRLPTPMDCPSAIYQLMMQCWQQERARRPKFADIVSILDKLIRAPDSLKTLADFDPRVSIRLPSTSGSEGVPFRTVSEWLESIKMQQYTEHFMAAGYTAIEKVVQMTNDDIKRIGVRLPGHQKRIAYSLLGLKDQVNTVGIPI
c-MET, sequence (P08581 25-1390): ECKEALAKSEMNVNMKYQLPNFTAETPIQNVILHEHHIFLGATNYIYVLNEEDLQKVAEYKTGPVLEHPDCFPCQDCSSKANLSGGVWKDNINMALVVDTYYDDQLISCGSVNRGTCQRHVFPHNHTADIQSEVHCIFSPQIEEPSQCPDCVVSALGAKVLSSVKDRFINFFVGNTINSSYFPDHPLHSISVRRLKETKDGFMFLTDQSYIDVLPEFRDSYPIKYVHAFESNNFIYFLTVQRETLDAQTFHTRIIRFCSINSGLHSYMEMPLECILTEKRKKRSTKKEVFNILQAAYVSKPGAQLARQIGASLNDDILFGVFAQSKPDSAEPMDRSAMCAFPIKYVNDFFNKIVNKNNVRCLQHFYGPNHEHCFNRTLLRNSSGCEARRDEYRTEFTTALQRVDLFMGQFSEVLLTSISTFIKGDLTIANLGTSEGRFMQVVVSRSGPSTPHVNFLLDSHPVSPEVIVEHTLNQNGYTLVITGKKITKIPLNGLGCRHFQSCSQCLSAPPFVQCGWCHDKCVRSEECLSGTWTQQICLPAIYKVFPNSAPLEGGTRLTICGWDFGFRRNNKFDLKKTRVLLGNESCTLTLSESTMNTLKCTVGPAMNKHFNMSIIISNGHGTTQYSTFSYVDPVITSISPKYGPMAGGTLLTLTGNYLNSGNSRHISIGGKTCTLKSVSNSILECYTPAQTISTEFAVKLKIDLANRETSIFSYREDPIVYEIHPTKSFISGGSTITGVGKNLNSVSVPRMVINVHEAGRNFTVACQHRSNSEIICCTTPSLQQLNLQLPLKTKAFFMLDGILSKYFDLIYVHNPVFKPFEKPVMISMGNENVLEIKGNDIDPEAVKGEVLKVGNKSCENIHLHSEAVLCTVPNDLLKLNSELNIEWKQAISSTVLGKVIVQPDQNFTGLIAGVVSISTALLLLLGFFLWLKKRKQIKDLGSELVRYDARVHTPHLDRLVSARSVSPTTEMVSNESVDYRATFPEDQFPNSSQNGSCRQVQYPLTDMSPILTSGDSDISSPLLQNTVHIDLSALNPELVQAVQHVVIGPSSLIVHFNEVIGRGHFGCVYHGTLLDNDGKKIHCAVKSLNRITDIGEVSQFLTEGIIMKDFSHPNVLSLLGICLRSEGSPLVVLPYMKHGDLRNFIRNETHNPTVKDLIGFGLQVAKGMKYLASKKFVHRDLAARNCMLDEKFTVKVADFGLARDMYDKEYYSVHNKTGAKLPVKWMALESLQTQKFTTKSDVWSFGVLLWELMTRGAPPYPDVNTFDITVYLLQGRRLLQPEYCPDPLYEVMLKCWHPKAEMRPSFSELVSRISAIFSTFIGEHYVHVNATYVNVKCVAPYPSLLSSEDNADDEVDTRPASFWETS
DDR1, sequence (Q08345 19-913): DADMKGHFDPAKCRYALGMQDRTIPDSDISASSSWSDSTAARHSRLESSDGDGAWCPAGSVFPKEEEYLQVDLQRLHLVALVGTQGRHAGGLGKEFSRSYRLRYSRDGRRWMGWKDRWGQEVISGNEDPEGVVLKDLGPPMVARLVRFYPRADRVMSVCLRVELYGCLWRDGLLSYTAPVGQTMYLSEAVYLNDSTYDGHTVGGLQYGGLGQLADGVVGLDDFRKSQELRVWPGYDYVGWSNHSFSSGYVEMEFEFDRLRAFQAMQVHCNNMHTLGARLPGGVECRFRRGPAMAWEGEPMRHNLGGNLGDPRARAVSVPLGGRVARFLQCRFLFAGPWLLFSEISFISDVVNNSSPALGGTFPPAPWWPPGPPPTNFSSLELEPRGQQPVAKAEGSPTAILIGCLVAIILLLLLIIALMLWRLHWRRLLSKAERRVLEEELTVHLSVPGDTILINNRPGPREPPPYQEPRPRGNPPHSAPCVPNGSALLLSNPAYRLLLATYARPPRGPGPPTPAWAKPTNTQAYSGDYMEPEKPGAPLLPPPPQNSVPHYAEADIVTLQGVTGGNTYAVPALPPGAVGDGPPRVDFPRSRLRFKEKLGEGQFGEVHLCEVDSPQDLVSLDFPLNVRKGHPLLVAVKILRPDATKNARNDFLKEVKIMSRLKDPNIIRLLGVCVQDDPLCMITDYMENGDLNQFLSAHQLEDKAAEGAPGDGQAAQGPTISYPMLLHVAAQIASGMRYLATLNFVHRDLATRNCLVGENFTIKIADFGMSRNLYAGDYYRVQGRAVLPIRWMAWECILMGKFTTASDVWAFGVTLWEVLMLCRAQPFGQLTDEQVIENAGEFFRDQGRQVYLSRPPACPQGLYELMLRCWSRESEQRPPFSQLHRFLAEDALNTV

SMILES | IC50 (AXL) [µM] | IC50 (FMS) [µM] | IC50 (DDR1) [µM] | IC50 (c-Kit) [µM] | IC50 (c-MER) [µM] | IC50 (c-MET) [µM] | IC50 (EPHA2) [µM] | IC50 (LOK/STK10) [µM] | IC50 (TYRO3/SKY) [µM] | IC50 (KDR/VEGFR2) [µM]
COc1cc2c(Oc3ccc(NC(=O)C4(C(=O)Nc5ccc(F)cc5)CC4)cc3)ccnc2cc1OC(=O)N1CCN(C)C[C@H]1C [Compound 1-11, 4-(4-(1-((4-fluorophenyl)carbamoyl)cyclopropane-1-carboxamido)phenoxy)-6-methoxyquinolin-7-yl (R)-2,4-dimethylpiperazine-1-carboxylate] | < 0.1 | < 0.1 | < 0.1 | < 0.1 | < 0.1 | < 0.1 | 0.1 to 1 | 0.1 to 1 | 0.1 to 1 | > 1
COc1cc2c(Oc3ccc(NC(=O)C4(C(=O)Nc5ccc(F)cc5)CC4)cc3)ccnc2cc1OC(=O)N1CCN(C)C[C@@H]1C [Compound 1-12] | < 0.1 | 0.1 to 1 | < 0.1 | < 0.1 | < 0.1 | < 0.1 | 0.1 to 1 | 0.1 to 1 | 0.1 to 1 | 0.1 to 1
COc1cc2c(Oc3ccc(NC(=O)C4(C(=O)Nc5ccc(F)cc5)CC4)cc3)ccnc2cc1OC(=O)N1CCC(F)(F)CC1 [Compound 1-13] | 0.1 to 1 | > 1 | < 0.1 | 0.1 to 1 | 0.1 to 1 | < 0.1 | > 1 | > 1 | > 1 | > 1
COc1cc2c(Oc3ccc(NC(=O)C4(C(=O)Nc5ccc(F)cc5)CC4)cc3)ccnc2cc1OC(=O)N1CCCC1 [Compound 1-14] | 0.1 to 1 | > 1 | < 0.1 | 0.1 to 1 | 0.1 to 1 | < 0.1 | > 1 | > 1 | > 1 | > 1
COc1cc2c(Oc3ccc(NC(=O)C4(C(=O)Nc5ccc(F)cc5)CC4)cc3)ccnc2cc1OC(=O)N(C)C [Compound 1-15] | 0.1 to 1 | 0.1 to 1 | < 0.1 | 0.1 to 1 | 0.1 to 1 | 0.1 to 1 | > 1 | 0.1 to 1 | > 1 | > 1
COc1cc2c(Oc3ccc(NC(=O)C4(C(=O)Nc5ccc(F)cc5)CC4)cc3)ccnc2cc1OC(=O)N1Cc2cn(S(C)(=O)=O)nc2C1 [Compound 1-16] | 0.1 to 1 | > 1 | < 0.1 | 0.1 to 1 | 0.1 to 1 | < 0.1 | > 1 | > 1 | > 1 | > 1
COc1cc2c(Oc3ccc(NC(=O)C4(C(=O)Nc5ccc(F)cc5)CC4)cc3)ccnc2cc1OC(=O)N1CCOCC1 [Compound 1-17] | 0.1 to 1 | 0.1 to 1 | < 0.1 | < 0.1 | < 0.1 | < 0.1 | 0.1 to 1 | 0.1 to 1 | > 1 | 0.1 to 1
COc1cc2c(Oc3ccc(NC(=O)C4(C(=O)Nc5ccc(F)cc5)CC4)cc3)ccnc2cc1OC(=O)N1CCN(C)[C@H](C)C1 [Compound 2-2] | < 0.1 | < 0.1 | < 0.1 | < 0.1 | < 0.1 | < 0.1 | 0.1 to 1 | 0.1 to 1 | 0.1 to 1 | 0.1 to 1
COc1cc2c(Oc3ccc(NC(=O)C4(C(=O)Nc5ccc(F)cc5)CC4)cc3)ccnc2cc1OC(=O)N1CCN(C)[C@@H](C)C1 [Compound 2-3] | < 0.1 | < 0.1 | < 0.1 | < 0.1 | < 0.1 | < 0.1 | 0.1 to 1 | 0.1 to 1 | 0.1 to 1 | 0.1 to 1
COc1cc2c(Oc3ccc(NC(=O)C4(C(=O)Nc5ccc(F)cc5)CC4)cc3)ccnc2cc1OC(=O)N1CC[C@@H](O)C1 [Compound 2-4] | < 0.1 | 0.1 to 1 | < 0.1 | < 0.1 | < 0.1 | < 0.1 | 0.1 to 1 | 0.1 to 1 | > 1 | > 1
COc1cc2c(Oc3ccc(NC(=O)C4(C(=O)Nc5ccc(F)cc5)CC4)cc3)ccnc2cc1OC(=O)N1CC[C@H](O)C1 [Compound 2-5] | < 0.1 | 0.1 to 1 | < 0.1 | < 0.1 | < 0.1 | < 0.1 | 0.1 to 1 | 0.1 to 1 | > 1 | > 1
COc1cc2c(Oc3ccc(NC(=O)C4(C(=O)Nc5ccc(F)cc5)CC4)cc3)ccnc2cc1OC(=O)N1C[C@H]2C[C@@H]1CN2C [Compound 2-6] | < 0.1 | < 0.1 | < 0.1 | < 0.1 | < 0.1 | < 0.1 | < 0.1 | 0.1 to 1 | 0.1 to 1 | 0.1 to 1
